These are literature values, as cited in US20160184332A1, “MEDICAMENT COMPRISING A PHARMACEUTICAL COMBINATION OF DRUGS” (priority 2013, published 2016).

Series [1] has as its system human CYP 450 isoenzymes: 1A2, 2A6, 2B6, 2C9, 2C19, 2D6 and 3A4.
Series [2] relates to uridine-5-5′-diphosphoglucuronyl transferase. The conditions noted are these: enzyme responsible for glucuronidation.
In a further series the target is CYP3A4 (Homo sapiens, UniProt P08684). Particulars: minor route; primary route of metabolism is glucuronidation.
The test system of series [3] is cytochrome P450 (CYP) isozymes. The conditions noted are these: in vitro.

CYP3A4, sequence (P08684 whole entry): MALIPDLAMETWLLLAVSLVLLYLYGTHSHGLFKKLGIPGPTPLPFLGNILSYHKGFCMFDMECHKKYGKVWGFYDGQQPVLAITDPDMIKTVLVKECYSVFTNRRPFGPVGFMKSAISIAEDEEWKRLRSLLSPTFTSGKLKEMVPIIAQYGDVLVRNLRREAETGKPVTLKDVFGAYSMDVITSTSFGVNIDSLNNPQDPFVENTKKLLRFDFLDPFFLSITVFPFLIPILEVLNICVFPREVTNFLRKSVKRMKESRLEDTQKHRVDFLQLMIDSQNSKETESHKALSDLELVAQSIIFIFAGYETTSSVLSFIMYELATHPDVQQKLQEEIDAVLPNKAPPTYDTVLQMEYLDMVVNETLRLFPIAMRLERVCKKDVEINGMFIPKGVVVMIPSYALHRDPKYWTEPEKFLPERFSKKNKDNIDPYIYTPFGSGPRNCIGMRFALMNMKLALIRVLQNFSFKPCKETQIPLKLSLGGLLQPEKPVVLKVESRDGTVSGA

Consider `Nc1nc(=O)n([C@@H]2CS[C@H](CO)O2)cc1F` [emtricitabine, 5-fluoro-1-(2R,5S)-[2-(hydroxymethyl)-1,3 oxathiolan-5-yl]cytosine], for which the “inhibition of in vitro drug metabolism mediated by human CYP 450 isoenzymes” value in series [1] was “does not inhibit”. Moreover, the “inhibition of uridine-5-5′-diphosphoglucuronyl transferase” value in series [2] is listed as “does not inhibit”.
On to `C[C@@H]1CCO[C@H]2Cn3cc(C(=O)NCc4ccc(F)cc4F)c(=O)c(O)c3C(=O)N12` [dolutegravir, (4R,12aS)—N-(2,4-difluorobenzyl)-7-hydroxy-4-methyl-6,8-dioxo-3,4,6,8,12,12a-hexa-hydro-2H-pyrido[1′,2′:4,5]pyrazino[2,1-b][1,3]oxazine-9-carboxamide], for which the “extent to which it is a substrate of CYP3A4” value on CYP3A4 was “about 15%”. Moreover, the “induction or inhibition of cytochrome P450 (CYP) isozymes” value in series [3] is listed as “demonstrates induction or inhibition”.
